Values after ≈ are worked out from the molar mass of the structure shown. “Also recorded” adds a separate entry of the source. Read-outs that look alike come from different tables or passages of the source.
What was measured:
[1] = tested on: Human lung adenocarcinoma cell A549; test: In-vitro inhibition of tumor cell proliferation (3H-TdR, 72 h), normal oxygen and hypoxic; type: cell-based; settings: A549, 72 h
Experimental: (§1) Take tumor cells in the logarithmic growth phase, add 0.25% pancreatin for digestion for 3 min, use RPMI-1640 containing 10% calf serum for suspension culture of the cells, count the number, adjust cell concentration to 1×10^5 cells/mL, inoculate to a Top-count dedicated 96-well cell culture plate at 100 μL/well, and incubate at 37° C. and 5% CO2 for 24 h; divide the cells into experimental groups and control groups, and add a target compound solution (0.001 μg/mL, 0.01 μg/mL, 0.1 μg/mL, 1 μg/mL, 10 μg/mL) to the experimental groups, wherein each concentration corresponded to four wells, and the volume of each well was made up to 200 μL; after adding samples, continue to culture for 72 h for each group (for hypoxic groups, continue to culture for 72 h at 5% CO2, 95% N2), add ^3H-TdR 3×10^5Bq to each group before culture ended, and measure the CPM (count per minute) value of each well with Top-count; and calculate the median inhibition concentration (IC50) of drugs in each experimental group on cell proliferation.

[2] = tested on: Human pancreatic adenocarcinoma cell BxPC-3 cell; test: as above; type: cell-based; parameters: Median inhibition concentration IC50 normal oxygen (air) / Median inhibition concentration IC50 hypoxic (nitrogen): unit not given here; settings: for IC50: Homo sapiens
[3] = tested on: Human liver cancer HepG2 cell; test: as above; type: cell-based; settings: HepG2, 72 h
Experimental: as §1

tumor cells = test: In-vitro inhibition of tumor cell proliferation, hypoxic versus normal oxygen; type: cell-based; settings: in words, see Table 1
Experimental: as §1

[4] = tested on: subcutaneous transplantation tumor of human BxPC-3; test: Growth inhibition of subcutaneous transplantation tumor of human BxPC-3 in nude mice, with animal weight; type: in vivo; settings: high-dose group, 4 times of the effective dose (0.4 mmol/kg); FIG. 3
Experimental: Take BxPC-3 human pancreatic cancer cells in the logarithmic growth phase, inoculate subcutaneously on the back of nude mice at a concentration of 5×10^6 cells·0.2 mL^−1·mouse^−1, three weeks later, after the long diameters of the transplanted tumors in nude mice were all ≥5 mm, calculate the similar volume of tumor bodies based on the long diameter and short diameter of the transplanted tumors. Nude mice were divided into 5 groups by a random block design and allocation method according to the tumor volume.
Administration scheme: 50 model animals were randomly divided into a negative control group, a low-dose group (compound 001, 0.1 mmol/kg), a high-dose group (compound 001, 0.4 mmol/kg), a gemcitabine hydrochloride group (0.2 mmol/kg), and a combined administration group (compound 001, 0.1 mmol/kg+ gemcitabine hydrochloride, 0.1 mmol/kg), intraperitoneally injected (twice per week) for 3 weeks, and killed one week after drug withdrawal. At the same time, animal weight was measured and the eye condition of the animal was observed.

[5] = hypoxic (5% CO2, 95% N2), read-out: Median inhibition concentration IC50 hypoxic (nitrogen)
[6] = normal oxygen (air), read-out: Median inhibition concentration IC50 normal oxygen (air)
[7] = BXPC-3, 72 h, hypoxic (5% CO2, 95% N2), read-out: Median inhibition concentration IC50 hypoxic (nitrogen)
[8] = BXPC-3, 72 h, normal oxygen (air), read-out: Median inhibition concentration IC50 normal oxygen (air)
[9] = BxPC-3, 72 h, hypoxic (5% CO2, 95% N2), read-out: Median inhibition concentration IC50 hypoxic (nitrogen)
[10] = BxPC-3, 72 h, normal oxygen (air), read-out: Median inhibition concentration IC50 normal oxygen (air)
[11] = BxPC-3, 72 h, hypoxic (5% CO2, 95% N2)
[12] = BxPC-3, 72 h, normal oxygen (air)

Structure (SMILES)	IC50 [1, 5] [µg/mL]	IC50 [1, 6] [µg/mL]	IC50 [2, 7] [µg/mL]	IC50 [2, 8] [µg/mL]	IC50 [3, 5] [µg/mL]	IC50 [3, 6] [µg/mL]	further results
CCCCOC(=O)[C@H](C)NP(=O)(OC[C@H]1O[C@@H](n2cnc(N)nc2=O)C(F)(F)C1O)OC(C)c1ccc([N+](=O)[O-])cc1 (some centres unmarked) [Compound 010]	0.2 (≈ 0.322 µM)	2 (≈ 3.22 µM)					
CC(C)OC(=O)[C@H](C)NP(=O)(OC[C@H]1O[C@@H](n2cnc(N)nc2=O)C(F)(F)C1O)OC(C)c1ccc([N+](=O)[O-])cc1 (some centres unmarked) [Compound 009]	0.2 (≈ 0.33 µM)	2 (≈ 3.3 µM)	0.4 (≈ 0.66 µM)	> 10			
CC(OC(=O)Nc1ccn([C@@H]2O[C@H](COP(=O)(N[C@@H](C)C(=O)OCc3ccccc3)Oc3ccccc3)C(O)C2(F)F)c(=O)n1)c1ccc([N+](=O)[O-])cc1 (some centres unmarked) [Compound 022]	0.01 (≈ 0.0129 µM)	0.01 (≈ 0.0129 µM)			0.3 (≈ 0.388 µM)	0.4 (≈ 0.517 µM)	IC50 ([2]; BXPC-3, 72 h, read-out: Median inhibition concentration IC50 hypoxic (nitrogen)): 0.1 µg/mL (≈ 0.129 µM); IC50 ([2]; BXPC-3, 72 h, read-out: Median inhibition concentration IC50 normal oxygen (air)): 0.1 µg/mL (≈ 0.129 µM); Cytotoxicity under a hypoxic condition compared with that under a normal oxygen condition (tumor cells): not significantly different
CC(C)OC(=O)[C@H](C)NP(=O)(OCc1ccc([N+](=O)[O-])s1)OC[C@H]1O[C@@H](n2cnc(N)nc2=O)C(F)(F)C1O (some centres unmarked) [Compound 016]			0.4 (≈ 0.668 µM)	> 10			
COc1ccc(COP(=O)(N[C@@H](C)C(=O)OC(C)c2ccc([N+](=O)[O-])o2)OC[C@H]2O[C@@H](n3ccc(N)nc3=O)C(F)(F)C2O)cc1 (some centres unmarked) [Compound 018]			0.5 (≈ 0.742 µM)	> 10			
CC(OC(=O)[C@H](C)NP(=O)(OC[C@H]1O[C@@H](n2ccc(N)nc2=O)C(F)(F)C1O)Oc1ccccc1)c1ccc([N+](=O)[O-])cc1 (some centres unmarked) [Compound 001]	0.05 (≈ 0.0782 µM)	1 (≈ 1.56 µM)			0.3 (≈ 0.469 µM)	> 10	IC50 [2, 9]: 0.2 µg/mL (≈ 0.313 µM); IC50 [2, 10]: > 10 µg/mL; Animal weight [4]: no significant difference in animal weight; also recorded: not significantly different from that of the low-dose group and a positive control drug gemcitabine group
COC(=O)[C@H](C)NP(=O)(OC[C@H]1O[C@@H](n2cnc(N)nc2=O)C(F)(F)C1O)OC(C)c1ccc([N+](=O)[O-])cc1 (some centres unmarked) [Compound 007]			0.4 (≈ 0.692 µM)	> 10	0.5 (≈ 0.864 µM)	> 10	
CC(OP(=O)(N[C@@H](C)C(=O)OC1CCCCC1)OC[C@H]1O[C@@H](n2cnc(N)nc2=O)C(F)(F)C1O)c1ccc([N+](=O)[O-])cc1 (some centres unmarked) [Compound 012]			0.5 (≈ 0.773 µM)	> 10	0.5 (≈ 0.773 µM)	> 10	
COc1ccccc1COP(=O)(N[C@@H](C)C(=O)OC(C)c1cnc([N+](=O)[O-])n1C)OC[C@H]1O[C@@H](n2ccc(N)nc2=O)C(F)(F)C1O (some centres unmarked) [Compound 021]			0.5 (≈ 0.727 µM)	> 10			
CC(OC(=O)[C@H](C)NP(=O)(OCc1ccc(N(C)C)cc1)OC[C@H]1O[C@@H](n2ccc(N)nc2=O)C(F)(F)C1O)c1ccc([N+](=O)[O-])cc1 (some centres unmarked) [Compound 020]			0.4 (≈ 0.574 µM)	> 10			
CC(OC(=O)[C@H](C)NP(=O)(OC[C@H]1O[C@@H](n2ccc(N)nc2=O)C(F)(F)C1O)Oc1ccccc1)c1cnc([N+](=O)[O-])n1C (some centres unmarked) [Compound 003]					0.4 (≈ 0.622 µM)	> 10	
C[C@H](NP(=O)(OC[C@H]1O[C@@H](n2ccc(N)nc2=O)C(F)(F)[C@@H]1O)Oc1ccccc1)C(=O)OCc1ccccc1 (some centres unmarked) [NUC-1031, reference compound]	0.01 (≈ 0.0172 µM)	0.01 (≈ 0.0172 µM)			0.2 (≈ 0.345 µM)	0.2 (≈ 0.345 µM)	IC50 [2, 9]: 0.1 µg/mL (≈ 0.172 µM); IC50 [2, 10]: 0.1 µg/mL (≈ 0.172 µM); Cytotoxicity under a hypoxic condition compared with that under a normal oxygen condition (tumor cells): no significant difference
CC(OP(=O)(N[C@@H](C)C(=O)OCc1ccccc1)OC[C@H]1O[C@@H](n2ccc(N)nc2=O)C(F)(F)C1O)c1ccc([N+](=O)[O-])cc1 (some centres unmarked) [Compound 006]	0.2 (≈ 0.306 µM)	2 (≈ 3.06 µM)	0.4 (≈ 0.612 µM)	> 10			
Nc1ccn([C@@H]2O[C@H](CO)[C@@H](O)C2(F)F)c(=O)n1 [Gemcitabine]	0.01 (≈ 0.038 µM)	0.01 (≈ 0.038 µM)			0.2 (≈ 0.76 µM)	0.2 (≈ 0.76 µM)	IC50 [2, 9]: 0.2 µg/mL (≈ 0.76 µM); IC50 [2, 10]: 0.2 µg/mL (≈ 0.76 µM); Cytotoxicity under a hypoxic condition compared with that under a normal oxygen condition (tumor cells): no significant difference
CCOC(=O)[C@H](C)NP(=O)(OC[C@H]1O[C@@H](n2cnc(N)nc2=O)C(F)(F)C1O)OC(C)c1ccc([N+](=O)[O-])cc1 (some centres unmarked) [Compound 008]			0.4 (≈ 0.675 µM)	> 10	0.3 (≈ 0.506 µM)	> 10	
C[C@H](NP(=O)(OC[C@H]1O[C@@H](n2ccc(N)nc2=O)C(F)(F)C1O)Oc1ccccc1)C(=O)OCc1ccc([N+](=O)[O-])cc1 (some centres unmarked) [Compound 023]	0.01 (≈ 0.016 µM)	0.01 (≈ 0.016 µM)			0.3 (≈ 0.48 µM)	0.4 (≈ 0.64 µM)	IC50 [2, 9]: 0.1 µg/mL (≈ 0.16 µM); IC50 [2, 10]: 0.1 µg/mL (≈ 0.16 µM); Cytotoxicity under a hypoxic condition compared with that under a normal oxygen condition (tumor cells): not significantly different
CC(OC(=O)[C@H](C)NP(=O)(OC[C@H]1O[C@@H](n2ccc(N)nc2=O)C(F)(F)C1O)Oc1ccccc1)c1ccc([N+](=O)[O-])s1 (some centres unmarked) [Compound 005]	0.1 (≈ 0.155 µM)	2 (≈ 3.1 µM)					
COC(=O)[C@H](C)NP(=O)(OC[C@H]1O[C@@H](n2cnc(N)nc2=O)C(F)(F)C1O)OC(C)c1ccc([N+](=O)[O-])cc1 (some centres unmarked) [Compound 014]							Median inhibition concentration IC50 hypoxic (nitrogen) [2, 11]: 0.7; Median inhibition concentration IC50 normal oxygen (air) [2, 12]: > 10
C[C@H](NP(=O)(OCc1ccccc1Cl)OC[C@H]1O[C@@H](n2ccc(N)nc2=O)C(F)(F)C1O)C(=O)OC(C)(C)c1ccc([N+](=O)[O-])s1 (some centres unmarked) [Compound 024]							Median inhibition concentration IC50 hypoxic (nitrogen) [2, 11]: >10; Median inhibition concentration IC50 normal oxygen (air) [2, 12]: >10; Cytotoxicity under a hypoxic condition compared with that under a normal oxygen condition (tumor cells): differed slightly
CC(OP(=O)(N[C@@H](C)C(=O)OCC(C)(C)C)OC[C@H]1O[C@@H](n2cnc(N)nc2=O)C(F)(F)C1O)c1ccc([N+](=O)[O-])cc1 (some centres unmarked) [Compound 011]	0.2 (≈ 0.315 µM)	2 (≈ 3.15 µM)					
CC(OC(=O)[C@H](C)NP(=O)(OC[C@H]1O[C@@H](n2cnc(N)nc2=O)C(F)(F)C1O)Oc1ccccc1)c1ccc([N+](=O)[O-])o1 (some centres unmarked) [Compound 004]							IC50 [2, 9]: 0.4 µg/mL (≈ 0.634 µM); IC50 [2, 10]: > 10 µg/mL
Cc1ccccc1COP(=O)(N[C@@H](C)C(=O)OC(C)(C)c1ccc([N+](=O)[O-])s1)OC[C@H]1O[C@@H](n2ccc(N)nc2=O)C(F)(F)C1O (some centres unmarked) [Compound 019]			0.8 (≈ 1.16 µM)	> 10			
C[C@H](NP(=O)(OC[C@H]1O[C@@H](n2ccc(N)nc2=O)C(F)(F)C1O)Oc1ccccc1)C(=O)OC(C)(C)c1ccc([N+](=O)[O-])cc1 (some centres unmarked) [Compound 002]	0.1 (≈ 0.153 µM)	2 (≈ 3.06 µM)			0.2 (≈ 0.306 µM)	> 10	IC50 [2, 9]: 0.4 µg/mL (≈ 0.612 µM); IC50 [2, 10]: > 10 µg/mL
C[C@H](NP(=O)(OCc1ccc([N+](=O)[O-])s1)OC[C@H]1O[C@@H](n2cnc(N)nc2=O)C(F)(F)C1O)C(=O)OC1CCCCC1 (some centres unmarked) [Compound 013]			0.8 (≈ 1.25 µM)	> 10			
CCOC(=O)[C@H](C)NP(=O)(OCc1cnc([N+](=O)[O-])n1C)OC[C@H]1O[C@@H](n2cnc(N)nc2=O)C(F)(F)C1O (some centres unmarked) [Compound 017]			0.8 (≈ 1.37 µM)	> 10			
C[C@H](NP(=O)(OCc1ccc([N+](=O)[O-])o1)OC[C@H]1O[C@@H](n2ccc(N)nc2=O)C(F)(F)C1O)C(=O)OCc1ccccc1 (some centres unmarked) [Compound 015]			0.5 (≈ 0.794 µM)	> 10			
